According to PMC2254147, “Novel Triazine JPC-2067-B Inhibits Toxoplasma gondii In Vitro and In Vivo” (PLoS Neglected Tropical Diseases, 2008):
≈ marks a conversion by molar mass, not a printed value. Where two headings read alike, the source gives them in different places.

Experiments:
[1] = Thompson Antimalarial Assay LD50; details: mouse, in vivo; @ Day 6
[2] = ref 4 (superscript at the row head, footnote not given); cited from earlier work
[3] = test system: tester strains TA97, TA98, TA100, TA102 and TA1535; test: Ames Test with and without microsomal activation; details: Tester Strains TA98, TA100, TA1535, TA1537 and TA1538
TgDHFR = target: T1, TgDHFR (Toxoplasma gondii, UniProt Q07422); test: biochemical; format: biochemical
T1 construct: DHFR from T. gondii was isolated directly from RH strain T. gondii grown in culture; endogenous in cells; host or cells: RH strain T. gondii grown on CHO/dhfr- cells
T1 sequence (Q07422 1-610): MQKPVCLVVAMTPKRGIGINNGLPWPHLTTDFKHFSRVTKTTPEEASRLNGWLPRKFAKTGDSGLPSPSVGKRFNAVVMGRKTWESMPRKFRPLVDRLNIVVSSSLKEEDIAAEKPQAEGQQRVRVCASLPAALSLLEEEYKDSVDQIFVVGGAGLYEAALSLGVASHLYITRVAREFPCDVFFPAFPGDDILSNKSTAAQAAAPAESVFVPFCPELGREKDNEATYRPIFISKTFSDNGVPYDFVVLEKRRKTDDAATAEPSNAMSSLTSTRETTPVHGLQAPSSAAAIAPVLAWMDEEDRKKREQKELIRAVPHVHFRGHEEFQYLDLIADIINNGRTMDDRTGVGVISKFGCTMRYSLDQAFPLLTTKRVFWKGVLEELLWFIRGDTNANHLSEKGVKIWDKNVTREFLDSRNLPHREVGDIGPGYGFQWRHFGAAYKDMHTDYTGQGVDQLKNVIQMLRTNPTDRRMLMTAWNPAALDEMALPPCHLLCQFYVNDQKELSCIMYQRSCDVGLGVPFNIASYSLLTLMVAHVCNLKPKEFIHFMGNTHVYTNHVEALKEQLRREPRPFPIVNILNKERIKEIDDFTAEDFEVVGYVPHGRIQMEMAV
Experimental: DHFR from Pneumocystis carinii was produced as the recombinant enzyme expressed in Escherichia coli. […] Organisms were introduced into a confluent monolayer and harvested when the mammalian cells were lysed. The 100,000× g supernate was stored in liquid nitrogen.
(§1) The spectrophotometric assay for DHFR was optimized for temperature and concentration of substrate and cofactor for each enzyme. […] The reaction was continuously recorded for 3 minutes. […] The low background activity in the absence of dihydrofolic acid was subtracted from all rates.
(§2) DHFR was assayed with several concentrations of inhibitor to produce rates ranging from 1 to 90% of the uninhibited rate. At least three concentrations were required for calculation; most curves contained five concentrations.

Mav DHFR = target: T2, Mav DHFR (Mycobacterium avium, UniProt O30463); test: Spectrophotometric DHFR assay, Mycobacterium avium-intracellulare DHFR; format: biochemical; details: 37°C; (95% confidence limits)
T2 construct: the bacteria were centrifuged, sonicated, and the 100,000 Xg supernate was stored under liquid nitrogen until assay; endogenous in cells; host or cells: M. avium-intracellulare clinical isolate (serovar 4), Indiana University School of Medicine
T2 sequence (O30463 1-181): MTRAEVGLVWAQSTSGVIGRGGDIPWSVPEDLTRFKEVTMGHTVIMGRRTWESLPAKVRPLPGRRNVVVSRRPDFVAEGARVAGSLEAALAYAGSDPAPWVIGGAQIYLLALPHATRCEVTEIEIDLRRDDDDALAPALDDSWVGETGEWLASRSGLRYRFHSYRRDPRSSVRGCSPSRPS
Experimental: Mycobacterium avium-intracellulare used in these studies was a clinical isolate (serovar 4) from Indiana University School of Medicine, Department of Pathology. The strain was maintained on Lowenstein-Jensen slants (Baxter Scientific) grown at room temperature. To produce enzyme, the organism was grown in Middlebrook 7H-9 liquid medium at 37°C to an OD660 of 0.5 to 0.7, which took several weeks. At harvest, the bacteria were centrifuged, sonicated, and the 100,000 Xg supernate was stored under liquid nitrogen until assay. These supernates contained both DHFR and dihydroopteroate synthetase activity.
(§3) The spectrophotometric assay for DHFR was optimized for temperature and concentration of substrate and cofactor for each enzyme. The standard assay contained Na phosphate buffer pH 7.4 (40.7 mM), 2-mercaptoethanol (8.9 mM), NADPH (0.117 mM), dihydrofolic acid (0.09 mM), KCL (150 mM), and sufficient enzyme to produce a change in OD340 of 0.035/minute at 37°C. The reaction was continuously recorded for 3 minutes. Activity under these conditions was linear with enzyme concentration over a 4-fold range. The low background activity in the absence of dihydrofolic acid was subtracted from all rates.
as §2

P. falciparum strains = details: drug-sensitive and drug-resistant strains; ref [4]-[10]; cited from earlier work
P. falciparum = details: ref [4]-[11]; cited from earlier work
Pc DHFR = target: T3, Pc DHFR (Pneumocystis carinii, UniProt P16184); test: Spectrophotometric DHFR assay, Pneumocystis carinii DHFR; format: biochemical
T3 construct: made in house; host or cells: Escherichia coli
T3 sequence (P16184 1-206): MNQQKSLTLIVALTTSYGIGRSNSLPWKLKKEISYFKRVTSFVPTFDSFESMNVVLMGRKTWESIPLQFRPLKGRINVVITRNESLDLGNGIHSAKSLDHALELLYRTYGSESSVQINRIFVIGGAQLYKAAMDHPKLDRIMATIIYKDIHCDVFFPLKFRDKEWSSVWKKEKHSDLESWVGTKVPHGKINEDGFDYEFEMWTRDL
From the text: DHFR from Pneumocystis carinii was produced as the recombinant enzyme expressed in Escherichia coli. […] DHFR from T. gondii was isolated directly from RH strain T. gondii grown in culture on Chinese hamster ovary cells lacking DHFR (CHO/dhfr^-, American Type Culture Collection 3952 CL). Organisms were introduced into a confluent monolayer and harvested when the mammalian cells were lysed. The 100,000× g supernate was stored in liquid nitrogen.
as §3, with “Activity under these conditions was linear with enzyme concentration over a 4-fold range.” left out
as §2

Rat liver DHFR = target: T4, Rat liver DHFR (Rattus norvegicus, UniProt Q920D2); test: Spectrophotometric DHFR assay, rat liver DHFR; format: biochemical; details: for IC50: 37°C, (95% confidence limits); for Selectivity for pathogen DHFR (in words): rat liver DHFR versus Pc, Tg, Mav DHFR, Table 1
T4 construct: Rat liver DHFR was prepared from livers of female Sprague-Dawley rats; from tissue; host or cells: liver of female Sprague-Dawley rats
T4 sequence (Q920D2 1-187): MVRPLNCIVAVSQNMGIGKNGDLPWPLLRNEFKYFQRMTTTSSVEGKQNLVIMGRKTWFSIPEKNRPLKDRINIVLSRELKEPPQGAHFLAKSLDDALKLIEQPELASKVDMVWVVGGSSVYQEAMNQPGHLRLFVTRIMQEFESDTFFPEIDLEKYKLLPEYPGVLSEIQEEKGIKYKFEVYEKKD
Experimental: Rat liver DHFR was prepared from livers of female Sprague-Dawley rats. The 100,000× g supernate was partially purified by ammonium sulfate precipitation; the 50–90% precipitate was re-dissolved and stored in liquid nitrogen.
as §1, §2

[4] = ref 4 (superscript at the row head, footnote not given); cited from earlier work; remark: listed apart in the source
[5] = 42-day toxicology study in Macaca fascicularis; format: in vivo
[6] = 42-day toxicology study in CD-1 mice; format: in vivo
Experimental: (§4) A 42-day toxicology study in CD-1 mice at doses up to 98 mg/kg evaluating well-being, weight gain, and histopathology was performed. […] 7.5 mg/kg was established as the NOAEL (No Observed Adverse Effect Level). JPC-2056 and JPC-2067 were assayed in the Ames Test with and without microsomal activation with tester strains TA97, TA98, TA100, TA102 and TA1535.

[7] = test system: tester strains TA97, TA98, TA100, TA102 and TA1535; test: Ames Test with and without microsomal activation
Experimental: as §4

[8] = 42-day study, doses up to 98 mg/kg

CC1(C)N=C(N)N=C(N)N1OCCCOc1cc(Cl)c(Cl)cc1Cl [JPC-208-B, 4,6-diamino-1,2-dihydro-2,2-dimethyl-1-[3′(2,4,5-trichlorophenoxy)propyloxy]-1,3,5-triazine]
LD50 at 6 day [1]: > 128 mg/kg
Oral LD50 Rat [2]: 1,980 mg/kg
Ames w/o Activation [3]: Not Active ^#
Ames with Activation [3]: Not Active ^#
IC50 (TgDHFR; 37°C, (95% confidence limits), read-out: Tg DHFR IC50): 0.000602 µM
IC50 (Mav DHFR): 0.00057 µM
ED50 in vitro against P. falciparum strains (P. falciparum strains): 0.05 ng/mL (≈ 0.127 nM)
Activity in vivo against P. falciparum, greater than that of pyrimethamine (P. falciparum): 2 logs
IC50 (Pc DHFR; 37°C, (95% confidence limits), read-out: Pc DHFR IC50): 0.000265 µM
IC50 (Rat liver DHFR): 0.00081 µM
Selectivity for pathogen DHFR (in words) (Rat liver DHFR): not selective
Oral LD50 Mouse [4]: 3,510 mg/kg

CCc1nc(N)nc(N)c1-c1ccc(Cl)cc1 [JPC-1090-A-1, Pyrimethamine]
IC50 (Mav DHFR): 1.2 µM
IC50 (Pc DHFR): 6.17 µM
IC50 (Rat liver DHFR): 1.32 µM

CC1(C)N=C(N)N=C(N)N1c1ccc(Cl)cc1 [JPC-2013-B-1, cycloguanil]
IC50 (TgDHFR): 0.41 µM
IC50 (Mav DHFR): 12.1 µM
IC50 (Pc DHFR): 8.9 µM
IC50 (Rat liver DHFR): 1.73 µM
Selectivity for pathogen DHFR (in words) (Rat liver DHFR): not significantly selective

CC(C)NC(=N)NC(=N)NOCCCOc1ccc(OC(F)(F)F)cc1Cl [JPC-2056, 1-(3′-(2-chloro-4-trifluoromethoxyphenyloxy)propyloxy)-5-isopropylbiguanide]
Toxicological findings, Cynomolgous Monkey ([5]; 15 mg/kg for 42 days): Intermittent Loose Stools/Diarrhea 15 mg/kg for 42 days
Findings in Macaca fascicularis at 15 mg/kg ([5]; 42-day study, 15 mg/kg, resolved upon drug withdrawal): histopathology findings at 15 mg/kg with sproradic episodes of loose stools/diarrhea
NOAEL at 42 day ([5]; cynomolgus monkey, in vivo, 42-day study, read-out: NOAEL (No Observed Adverse Effect Level)): 7.5 mg/kg
LD50 at 6 day [1]: 256 mg/kg
Toxicological findings, CD-1 Mice ([6]; 98 mg/kg for 42 days): Inhibition of Weight Gain at 98 mg/kg for 42 days
Gross pathology, CD-1 mice [6, 8]: no gross pathology with the exception of a reduction in the rate of weight gain
Histopathology findings, CD-1 mice [6, 8]: no histopathology findings
Ames Test, with and without microsomal activation [7]: No activity
Ames w/o Activation [7]: Not Active ^*
Ames with Activation [7]: Not Active ^*

CC(C)N=C(N)/N=C(\N)NOCCCOc1cc(Cl)c(Cl)cc1Cl.Cl [PS-15]
Activity in vivo against P. falciparum, greater than that of pyrimethamine (P. falciparum): 2 logs
